This is an account of results in PubChem BioAssay (NCI).

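Exposure lasted 48 hours, with cells grown in 96-well plates and compounds tested at five concentrations. The concentration for full growth arrest is given as TGI.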

The first test has as its system DMS 114 small cell lung. The experiment in a line: NCI tumour cell line growth inhibition, 48 h.
In the case of `CC(=O)O[C@]12CCCCCC1C1(O)C(O)CCC[C@H]12` (some centres undefined), the TGI was more than 100 µM.
Regarding `COCOc1ccc(Cn2c(=O)n(C)c(=O)c3c2ncn3C)cc1[N+](=O)[O-]`, the TGI was more than 100 µM.
Take `BrC/C=C/C[P+](c1ccccc1)(c1ccccc1)c1ccccc1`: the TGI came to 84 µM.
On the same count and under the same terms, with `C=CCNC(=S)/N=C/c1c(O)c2ccccc2oc1=O` the figure was more than 100 µM; with `O=C(NC(Cc1ccc(I)cc1)C(=O)O)c1ccc(I)cc1` (centres undefined), more than 100 µM.
Same read-out and setting: with `O=c1ccc2cc3ccc4cccc5ccc(c2o1)c3c45` the figure was more than 100 µM.

The subject of the next test is HOP-18 NSCLC. The experiment in a line: NCI tumour cell line growth inhibition, 48 h.
In turn, `CC(=O)O[C@]12CCCCCC1C1(O)C(O)CCC[C@H]12` (some centres undefined) yielded a TGI of more than 100 µM.
On to `BrC/C=C/C[P+](c1ccccc1)(c1ccccc1)c1ccccc1`, for which the TGI is more than 100 µM.
On the same count and under the same terms, next, `C=CCNC(=S)/N=C/c1c(O)c2ccccc2oc1=O`: more than 100 µM; `CC(=O)N(C(C)=O)C1=C2c3ccccc3N(S(=O)(=O)c3ccccc3)C2n2c(=O)n(-c3ccccc3)c(=O)n2C1` (centres undefined): 86.4 µM.
Still for that read-out and setting: next, `O=C(NC(Cc1ccc(I)cc1)C(=O)O)c1ccc(I)cc1` (centres undefined): more than 100 µM; `O=c1ccc2cc3ccc4cccc5ccc(c2o1)c3c45`: more than 100 µM.
`O=S(=O)(O)c1cc2ccc1/C=C\c1ccc(cc1S(=O)(=O)O)N=Nc1ccc(c(S(=O)(=O)O)c1)/C=C\c1ccc(cc1S(=O)(=O)O)N=N2` displayed a TGI of more than 100 µM.

The next test has as its system KM20L2 colon. The experiment in a line: NCI tumour cell line growth inhibition, 48 h.
Take `CC(=O)O[C@]12CCCCCC1C1(O)C(O)CCC[C@H]12` (some centres undefined): the TGI was more than 100 µM.
Compound `COCOc1ccc(Cn2c(=O)n(C)c(=O)c3c2ncn3C)cc1[N+](=O)[O-]` came in with a TGI of more than 100 µM.
Still for that read-out and setting: next, `BrC/C=C/C[P+](c1ccccc1)(c1ccccc1)c1ccccc1`: more than 100 µM; `C=CCNC(=S)/N=C/c1c(O)c2ccccc2oc1=O`: more than 100 µM.
Still for that read-out and setting: with `CC(=O)N(C(C)=O)C1=C2c3ccccc3N(S(=O)(=O)c3ccccc3)C2n2c(=O)n(-c3ccccc3)c(=O)n2C1` (centres undefined) the figure was more than 100 µM; with `O=C(NC(Cc1ccc(I)cc1)C(=O)O)c1ccc(I)cc1` (centres undefined), more than 100 µM.
`O=c1ccc2cc3ccc4cccc5ccc(c2o1)c3c45` displayed a TGI of more than 100 µM.
The same measure, in the same setting: next, `O=S(=O)(O)c1cc2ccc1/C=C\c1ccc(cc1S(=O)(=O)O)N=Nc1ccc(c(S(=O)(=O)O)c1)/C=C\c1ccc(cc1S(=O)(=O)O)N=N2`: more than 100 µM.

For the next test, the system named is M19-MEL melanoma. The experiment in a line: NCI tumour cell line growth inhibition, 48 h.
In the case of `CC(=O)O[C@]12CCCCCC1C1(O)C(O)CCC[C@H]12` (some centres undefined), the TGI is more than 100 µM.
The same measure, in the same setting: with `COCOc1ccc(Cn2c(=O)n(C)c(=O)c3c2ncn3C)cc1[N+](=O)[O-]` the figure was more than 100 µM.
The same measure, in the same setting: with `BrC/C=C/C[P+](c1ccccc1)(c1ccccc1)c1ccccc1` the figure was 33.2 µM; with `Cc1cc(=O)c2c([nH]1)NS(=O)(=O)NC2=O`, more than 100 µM; with `C=CCNC(=S)/N=C/c1c(O)c2ccccc2oc1=O`, more than 100 µM.
The same measure, in the same setting: with `CC(=O)N(C(C)=O)C1=C2c3ccccc3N(S(=O)(=O)c3ccccc3)C2n2c(=O)n(-c3ccccc3)c(=O)n2C1` (centres undefined) the figure was 94.7 µM; with `O=C(NC(Cc1ccc(I)cc1)C(=O)O)c1ccc(I)cc1` (centres undefined), more than 100 µM.
Compound `O=c1ccc2cc3ccc4cccc5ccc(c2o1)c3c45` returned a TGI of more than 100 µM.
Still for that read-out and setting: with `O=S(=O)(O)c1cc2ccc1/C=C\c1ccc(cc1S(=O)(=O)O)N=Nc1ccc(c(S(=O)(=O)O)c1)/C=C\c1ccc(cc1S(=O)(=O)O)N=N2` the figure was more than 100 µM.

The test system of another test is P388 leukemia. As to the kind of experiment: NCI tumour cell line growth inhibition, 48 h.
In the case of `O=C(NC(Cc1ccc(I)cc1)C(=O)O)c1ccc(I)cc1` (centres undefined), the TGI was more than 100 µM.
As to `O=S(=O)(O)c1cc2ccc1/C=C\c1ccc(cc1S(=O)(=O)O)N=Nc1ccc(c(S(=O)(=O)O)c1)/C=C\c1ccc(cc1S(=O)(=O)O)N=N2`, the TGI is more than 100 µM.

The next test deals with P388/ADR leukemia. As to the kind of experiment: NCI tumour cell line growth inhibition, 48 h.
Take `O=C(NC(Cc1ccc(I)cc1)C(=O)O)c1ccc(I)cc1` (centres undefined): the TGI was more than 100 µM.
Still for that read-out and setting: with `O=S(=O)(O)c1cc2ccc1/C=C\c1ccc(cc1S(=O)(=O)O)N=Nc1ccc(c(S(=O)(=O)O)c1)/C=C\c1ccc(cc1S(=O)(=O)O)N=N2` the figure was more than 100 µM.

A further test deals with RXF-631 renal. The experiment in a line: NCI tumour cell line growth inhibition, 48 h.
In turn, `BrC/C=C/C[P+](c1ccccc1)(c1ccccc1)c1ccccc1` displayed a TGI of more than 100 µM.
The compound `Cc1cc(=O)c2c([nH]1)NS(=O)(=O)NC2=O` yielded a TGI of more than 100 µM.
Still for that read-out and setting: next, `O=c1ccc2cc3ccc4cccc5ccc(c2o1)c3c45`: more than 100 µM.

For a further test, the system named is SN12K1 renal. The experiment in a line: NCI tumour cell line growth inhibition, 48 h.
`O=C(NC(Cc1ccc(I)cc1)C(=O)O)c1ccc(I)cc1` (centres undefined) registered a TGI of more than 100 µM.
On the same count and under the same terms, next, `O=S(=O)(O)c1cc2ccc1/C=C\c1ccc(cc1S(=O)(=O)O)N=Nc1ccc(c(S(=O)(=O)O)c1)/C=C\c1ccc(cc1S(=O)(=O)O)N=N2`: more than 100 µM.

In another test the test system is SNB-78 CNS. As to the kind of experiment: NCI tumour cell line growth inhibition, 48 h.
In turn, `CC(=O)O[C@]12CCCCCC1C1(O)C(O)CCC[C@H]12` (some centres undefined) returned a TGI of more than 100 µM.
For `COCOc1ccc(Cn2c(=O)n(C)c(=O)c3c2ncn3C)cc1[N+](=O)[O-]`, the TGI is more than 100 µM.
Compound `BrC/C=C/C[P+](c1ccccc1)(c1ccccc1)c1ccccc1` registered a TGI of more than 100 µM.
As for `Cc1cc(=O)c2c([nH]1)NS(=O)(=O)NC2=O`, the TGI was more than 100 µM.
`C=CCNC(=S)/N=C/c1c(O)c2ccccc2oc1=O` registered a TGI of more than 100 µM.
The same measure, in the same setting: next, `O=C(NC(Cc1ccc(I)cc1)C(=O)O)c1ccc(I)cc1` (centres undefined): more than 100 µM.
Still for that read-out and setting: next, `O=c1ccc2cc3ccc4cccc5ccc(c2o1)c3c45`: more than 100 µM; `O=S(=O)(O)c1cc2ccc1/C=C\c1ccc(cc1S(=O)(=O)O)N=Nc1ccc(c(S(=O)(=O)O)c1)/C=C\c1ccc(cc1S(=O)(=O)O)N=N2`: more than 100 µM.

Another test relates to XF 498 CNS. The experiment in a line: NCI tumour cell line growth inhibition, 48 h.
Consider `CC(=O)O[C@]12CCCCCC1C1(O)C(O)CCC[C@H]12` (some centres undefined), for which the TGI is more than 100 µM.
The same measure, in the same setting: next, `BrC/C=C/C[P+](c1ccccc1)(c1ccccc1)c1ccccc1`: 43.6 µM; `Cc1cc(=O)c2c([nH]1)NS(=O)(=O)NC2=O`: more than 100 µM.
Still for that read-out and setting: with `C=CCNC(=S)/N=C/c1c(O)c2ccccc2oc1=O` the figure was more than 100 µM.
`O=C(NC(Cc1ccc(I)cc1)C(=O)O)c1ccc(I)cc1` (centres undefined) came in with a TGI of more than 100 µM.
Consider `O=c1ccc2cc3ccc4cccc5ccc(c2o1)c3c45`, for which the TGI was 56.8 µM.
In the case of `O=S(=O)(O)c1cc2ccc1/C=C\c1ccc(cc1S(=O)(=O)O)N=Nc1ccc(c(S(=O)(=O)O)c1)/C=C\c1ccc(cc1S(=O)(=O)O)N=N2`, the TGI was more than 100 µM.
